Columns and labels:
Type in all cases: cell-based
[1] = tested on: HCT-116 colorectal cancer cell line; test: CCK-8 proliferation inhibition; details: Homo sapiens, HCT-116, 72 h, concentration of 30 μM; 72 hours; CCK-8; read-out: HCT116 inhibition rate/%
Procedure, shortened: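 2000 cells/well, McCoy's 5A + 10% newborn bovine serum; overnight attach, 37° C./5% CO2. Cpd from DMSO stock diluted in medium, 72 h. Readout: CCK-8 (1:10). Ctrl 1‰ DMSO.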

[2] = tested on: Escherichia coli (including ESBLs, non-ESBLs); test: MIC, two-fold agar dilution (CLSI), clinical isolates
Procedure, shortened: (§1)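 Test samples were assayed by the CLSI-recommended two-fold agar dilution method, and the minimum inhibitory concentration against each tested strain was determined.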

[3] = tested on: Enterococcus faecalis (EFA); test: as above
Procedure, shortened: as §1

[4] = tested on: methicillin-sensitive Staphylococcus aureus (MSSA); test: as above
Procedure, shortened: as §1

[5] = tested on: methicillin-sensitive Staphylococcus epidermidis (MSSE); test: as above
Procedure, shortened: as §1

[6] = tested on: Streptococcus pneoumoniae (SPN); test: as above
Procedure, shortened: as §1

[7] = tested on: Enterococcus faecium (EFM); test: as above
Procedure, shortened: as §1

[8] = tested on: Moraxella catarrhalis (BCA); test: as above
Procedure, shortened: as §1

[9] = tested on: methicillin-resistant Staphylococcus aureus (MRSA); test: as above
Procedure, shortened: as §1

[10] = tested on: methicillin-resistant Staphylococcus epidermidis (MRSE); test: as above
Procedure, shortened: as §1

CCCC[C@H](CC(=O)NO)C(=O)N1CC2(CC2)C[C@H]1C(=O)Nc1ccncn1 [Example 45]
inhibition at 30 µM [1]: 25%
Anti-bacterial activity (MIC), strain ECO+ 15-1 ([2]; clinical isolate ECO+ 15-1): 32 µg/mL
Anti-bacterial activity (MIC), strain ECO+ 15-2 ([2]; clinical isolate ECO+ 15-2): > 32 µg/mL
Anti-bacterial activity (MIC), strain ECO+ 15-3 ([2]; clinical isolate ECO+ 15-3): > 32 µg/mL
Anti-bacterial activity (MIC), strain ECO+ 15-4 ([2]; clinical isolate ECO+ 15-4): 1 µg/mL
Anti-bacterial activity (MIC), strain ECO− 15-1 ([2]; clinical isolate ECO− 15-1): 32 µg/mL
Anti-bacterial activity (MIC), strain ECO− 15-2 ([2]; clinical isolate ECO− 15-2): > 32 µg/mL
Anti-bacterial activity (MIC), strain ECO− 15-3 ([2]; clinical isolate ECO− 15-3): > 32 µg/mL
Anti-bacterial activity (MIC), strain ECO− 15-4 ([2]; clinical isolate ECO− 15-4): > 32 µg/mL
Anti-bacterial activity (MIC), strain EFA 15-1 ([3]; clinical isolate EFA 15-1): > 32 µg/mL
Anti-bacterial activity (MIC), strain EFA 15-2 ([3]; clinical isolate EFA 15-2): > 32 µg/mL
Anti-bacterial activity (MIC), strain EFA 15-3 ([3]; clinical isolate EFA 15-3): > 32 µg/mL
Anti-bacterial activity (MIC), strain EFA 15-4 ([3]; clinical isolate EFA 15-4): > 32 µg/mL
Anti-bacterial activity (MIC), strain EFA 15-5 ([3]; clinical isolate EFA 15-5): > 32 µg/mL
Anti-bacterial activity (MIC), strain EFA 15-6 ([3]; clinical isolate EFA 15-6): > 32 µg/mL
Anti-bacterial activity (MIC), strain EFA 15-9 ([3]; clinical isolate EFA 15-9): 16 µg/mL
Anti-bacterial activity (MIC), strain MSSA 15-3 ([4]; clinical isolate MSSA 15-3): 0.5 µg/mL
Anti-bacterial activity (MIC), strain MSSA 15-4 ([4]; clinical isolate MSSA 15-4): 1 µg/mL
Anti-bacterial activity (MIC), strain MSSA 15-5 ([4]; clinical isolate MSSA 15-5): 1 µg/mL
Anti-bacterial activity (MIC), strain MSSA 15-6 ([4]; clinical isolate MSSA 15-6): > 32 µg/mL
Anti-bacterial activity (MIC), strain MSSE 15-3 ([5]; clinical isolate MSSE 15-3): 1 µg/mL
Anti-bacterial activity (MIC), strain MSSE 15-4 ([5]; clinical isolate MSSE 15-4): 1 µg/mL
Anti-bacterial activity (MIC), strain MSSE 15-5 ([5]; clinical isolate MSSE 15-5): 1 µg/mL
Anti-bacterial activity (MIC), strain MSSE 15-6 ([5]; clinical isolate MSSE 15-6): 1 µg/mL
Anti-bacterial activity (MIC), strain SPN 16-2 ([6]; clinical isolate SPN 16-2): 0.5 µg/mL
Anti-bacterial activity (MIC), strain SPN 16-4 ([6]; clinical isolate SPN 16-4): 0.5 µg/mL
Anti-bacterial activity (MIC), strain EFM 15-1 ([7]; clinical isolate EFM 15-1): > 32 µg/mL
Anti-bacterial activity (MIC), strain EFM 15-2 ([7]; clinical isolate EFM 15-2): > 32 µg/mL
Anti-bacterial activity (MIC), strain EFM 15-3 ([7]; clinical isolate EFM 15-3): > 32 µg/mL
Anti-bacterial activity (MIC), strain EFM 15-4 ([7]; clinical isolate EFM 15-4): > 32 µg/mL
Anti-bacterial activity (MIC), strain EFM 15-5 ([7]; clinical isolate EFM 15-5): 0.5 µg/mL
Anti-bacterial activity (MIC), strain EFM 15-6 ([7]; clinical isolate EFM 15-6): 0.5 µg/mL
Anti-bacterial activity (MIC), strain BCA 14-1 ([8]; clinical isolate BCA 14-1): 1 µg/mL
Anti-bacterial activity (MIC), strain BCA 14-4 ([8]; clinical isolate BCA 14-4): 1 µg/mL
Anti-bacterial activity (MIC), strain BCA 14-5 ([8]; clinical isolate BCA 14-5): 0.5 µg/mL
Anti-bacterial activity (MIC), strain BCA 14-6 ([8]; clinical isolate BCA 14-6): 0.5 µg/mL
Anti-bacterial activity (MIC), strain BCA 14-7 ([8]; clinical isolate BCA 14-7): 1 µg/mL
Anti-bacterial activity (MIC), strain BCA 14-8 ([8]; clinical isolate BCA 14-8): 1 µg/mL
Anti-bacterial activity (MIC), strain BCA 14-10 ([8]; clinical isolate BCA 14-10): 1 µg/mL
Anti-bacterial activity (MIC), strain MRSA 15-1 ([9]; clinical isolate MRSA 15-1): 0.5 µg/mL
Anti-bacterial activity (MIC), strain MRSA 15-2 ([9]; clinical isolate MRSA 15-2): 1 µg/mL
Anti-bacterial activity (MIC), strain MRSA 15-3 ([9]; clinical isolate MRSA 15-3): 1 µg/mL
Anti-bacterial activity (MIC), strain MRSA 15-4 ([9]; clinical isolate MRSA 15-4): 1 µg/mL
Anti-bacterial activity (MIC), strain MRSE 15-1 ([10]; clinical isolate MRSE 15-1): 1 µg/mL
Anti-bacterial activity (MIC), strain MRSE 15-2 ([10]; clinical isolate MRSE 15-2): 1 µg/mL
Anti-bacterial activity (MIC), strain MRSE 15-3 ([10]; clinical isolate MRSE 15-3): 1 µg/mL
Anti-bacterial activity (MIC), strain MRSE 15-7 ([10]; clinical isolate MRSE 15-7): 1 µg/mL

From US10738028B2, “Spiro three-membered ring, spiro five-membered ring peptide deformylase inhibitor and use thereof in antibacteria and anti-tumor” (priority 2016, dated 2020)
